Assay results reported in patent US10786484B2, “Mono- or di-substituted indole derivatives as dengue viral replication inhibitors” (Janssen Pharmaceuticals, Inc., priority 2015, dated 2020).

What was measured:
[1] = test system: Vero cells; details: African green monkey
[2] = test system: DENV-2 16681 strain labeled with eGFP; assay: DENV-2 antiviral assay (eGFP fluorescence read-out in Vero cells); format: cell-based, Dengue virus; details: DENV-2 16681 eGFP, MOI 0.5, 3 days
Description: The antiviral activity of all the compounds of the invention was tested against the DENV-2 16681 strain which was labeled with enhanced green fluorescent protein (eGPF). The culture medium consists of minimal essential medium supplemented with 2% of heat-inactivated fetal calf serum, 0.04% gentamycin (50 mg/mL) and 2 mM of L-glutamine. Vero cells, obtained from ECACC, were suspended in culture medium and 25 μL was added to 384-well plates (2500 cells/well), which already contain the antiviral compounds. Typically, these plates contain a 5-fold serial dilution of 9 dilution steps of the test compound at 200 times the final concentration in 100% DMSO (200 nL). […] Finally, each plate contains wells which are assigned as virus controls (containing cells and virus in the absence of compound), cell controls (containing cells in the absence of virus and compound) and medium controls (containing medium in the absence of cells, virus and compounds). To the wells assigned as medium control, 25 μL of culture medium was added instead of Vero cells. Once the cells were added to the plates, the plates were incubated for 30 minutes at room temperature to allow the cells to distribute evenly within the wells. Next, the plates were incubated in a fully humidified incubator (37° C., 5% CO2) until the next day. Then, DENV-2 strain 16681, labeled with eGFP, was added at a multiplicity of infection (MOI) of 0.5. Therefore, 15 μL of virus suspension was added to all the wells containing test compound and to the wells assigned as virus control. In parallel, 15 μL of culture medium was added to the medium and cell controls. Next, the plates were incubated for 3 days in a fully humidified incubator (37° C., 5% CO2). At the day of the read out, the eGFP fluorescence was measured using an automated fluorescence microscope at 488 nm (blue laser). Using an in-house LIMS system, inhibition dose response curves for each compound were calculated and the half maximal effective concentration (EC50) was determined. Therefore, the percent inhibition (I) for every test concentration is calculated using the following formula: I=100*([…])/(SVC−SCC); ST, SCC and SVC are the amount of eGFP signal in the test compound, cell control and virus control wells, respectively. The EC50 represents the concentration of a compound at which the virus replication is inhibited with 50%, as measured by a 50% reduction of the eGFP fluorescent intensity compared to the virus control. The EC50 is calculated using linear interpolation (Table 1).

[3] = test system: DENV-2 strain 16681; assay: Tetravalent RT-qPCR assay Protocol A, serotype 2; format: cell-based; details: Dengue virus, DENV2, 72 h; RT-qPCR serotype 2 16681, Vero cells, day 3
Description: (§1) The antiviral activity of the compounds of the invention was tested against DENV-1 strain TC974#666 (NCPV), DENV-2 strain 16681, DENV-3 strain H87 (NCPV) and DENV-4 strains H241 (NCPV) and EDEN (SG/06K2270DK1/2005; GenBank accession number QG398256) in a RT-qPCR assay. Therefore, Vero cells were infected with either DENV-1, or -2, or -3, or -4 in the presence or absence of test compounds. At day 3 post-infection, the cells were lysed and cell lysates were used to prepare cDNA of both a viral target (the 3′UTR of DENV; Table 2) and a cellular reference gene (β-actin, Table 2). Subsequently, a duplex real time PCR was performed on a Lightcycler480 instrument. The generated Cp value is inversely proportional to the amount of RNA expression of these targets. Inhibition of DENV replication by a test compound results in a shift of Cp's for the 3′UTR gene. On the other hand, if a test compound is toxic to the cells, a similar effect on β-actin expression will be observed. The comparative ΔΔCp method is used to calculate EC50, which is based on the relative gene expression of the target gene (3′UTR) normalized with the cellular housekeeping gene (β-actin). In addition, CC50 values are determined based on the Cp values acquired for the housekeeping gene β-actin.
(§2) The culture medium consisted of minimal essential medium supplemented with 2% of heat-inactivated fetal calf serum, 0.04% gentamycin (50 mg/mL) and 2 mM of L-glutamine. Vero cells, obtained from ECACC, were suspended in culture medium and 75 μL/well was added in 96-well plates (10000 cells/well), which already contain the antiviral compounds. […] In addition, each plate contains wells which are assigned as virus controls (containing cells and virus in the absence of compound) and cell controls (containing cells in the absence of virus and compound). Once the cells were added in the plates, the plates were incubated in a fully humidified incubator (37° C., 5% CO2) until the next day. Dengue viruses serotype-1, 2, 3 and 4 were diluted in order to obtain a Cp of ˜22-24 in the assay. Therefore, 25 μL of virus suspension, was added to all the wells containing test compound and to the wells assigned as virus control. In parallel, 25 μL of culture medium was added to the cell controls. Next, the plates were incubated for 3 days in a fully humidified incubator (37° C., 5% CO2). After 3 days, the supernatant was removed from the wells and the cells were washed twice with ice-cold PBS (−100 μL). The cell pellets within the 96-well plates were stored at −80° C. for at least 1 day. Next, RNA was extracted using the Cells-to-CT™ lysis kit, according to the manufacturer's guideline (Life Technologies). The cell lysates can be stored at −80° C. or immediately used in the reverse transcription step.
(§3) In preparation of the reverse transcription step, mix A (table 3A) was prepared and 7.57 μL/well was dispensed in a 96-well plate. After addition of 5 μL of the cell lysates, a five minute denaturation step at 75° C. was performed (table 3B). Afterwards, 7.43 μL of mix B was added (table 3C) and the reverse transcription step was initiated (table 3D) to generate cDNA.
(§4) Finally, a RT-qPCR mix was prepared, mix C (table 4A), and 22.02 μL/well was dispensed in 96-well LightCycler qPCR plates to which 3 μL of cDNA was added and the qPCR was performed according to the conditions in table 4B on a LightCycler 480.
(§5) Using the LightCycler software and an in-house LIMS system, dose response curves for each compound were calculated and the half maximal effective concentration (EC50) and the half maximal cytotoxic concentration (CC50) were determined (Tables 5-8).

[4] = test system: DENV-3 strain H87; assay: Tetravalent RT-qPCR assay Protocol A, serotype 3; format: cell-based; details: Dengue virus, DENV3, 72 h; RT-qPCR serotype 3 H87, Vero cells, day 3
Description: as §1, §2, §3, §4, §5

[5] = test system: DENV-1 strain TC974#666; assay: Tetravalent RT-qPCR assay Protocol A, serotype 1; format: cell-based; details: Dengue virus, DENV1, 72 h; RT-qPCR serotype 1 TC974#666, Vero cells, day 3
Description: as §1, §2, §3, §4, §5

[6] = test system: DENV-4 strain H241; assay: Tetravalent RT-qPCR assay Protocol A, serotype 4 H241; format: cell-based; details: Dengue virus, DENV4, 72 h; RT-qPCR serotype 4 H241, Vero cells, day 3
Description: as §1, §2, §3, §4, §5

| Structure (SMILES) | CC50 [1] [µM] | EC50 [2] [µM] | EC50 [3] [µM] | EC50 [4] [µM] | EC50 [5] [µM] | EC50 [6] [µM] |
| --- | --- | --- | --- | --- | --- | --- |
| COc1cc(NC(C(=O)c2c[nH]c3cc(F)ccc23)c2ccc(F)cc2OCCO)cc(S(C)(=O)=O)c1 (single isomer, unassigned) [Compound 1B, 1-(6-fluoro-1H-indol-3-yl)-2-(4-fluoro-2-(2-hydroxyethoxy)phenyl)-2-((3-methoxy-5-(methylsulfonyl)phenyl)amino)ethanone] | 13 | 0.085 |  |  |  |  |
| COc1cc(NC(C(=O)c2c[nH]c3cc(Cl)ccc23)c2ccc(F)cc2OCCO)cc(S(C)(=O)=O)c1 (single isomer, unassigned) [Compound 2B, 1-(6-chloro-1H-indol-3-yl)-2-(4-fluoro-2-(2-hydroxyethoxy)phenyl)-2-((3-methoxy-5-(methylsulfonyl)phenyl)amino)-ethanone] | 12 | 0.021 |  |  |  |  |
| COc1cc(NC(C(=O)c2c[nH]c3c(C)c(F)ccc23)c2ccc(F)cc2OCCO)cc(S(C)(=O)=O)c1 (single isomer, unassigned) [Compound 3B, 2-(4-fluoro-2-(2-hydroxyethoxy)phenyl)-1-(6-fluoro-7-methyl-1H-indol-3-yl)-2-((3-methoxy-5-(methylsulfonyl)phenyl)amino)ethanone] | 11 | 0.029 |  |  |  |  |
| COc1cc(NC(C(=O)c2c[nH]c3c(C)c(Cl)ccc23)c2ccc(F)cc2OCCO)cc(S(C)(=O)=O)c1 (single isomer, unassigned) [Compound 4A, 1-(6-chloro-7-methyl-1H-indol-3-yl)-2-(4-fluoro-2-(2-hydroxyethoxy)phenyl)-2-((3-methoxy-5-(methylsulfonyl)phenyl)amino)ethanone] | 11 | 0.011 |  |  |  |  |
| COc1cc(NC(C(=O)c2c[nH]c3cc(F)c(F)cc23)c2ccc(F)cc2OCCO)cc(S(C)(=O)=O)c1 (single isomer, unassigned) [Compound 5B, 1-(5,6-difluoro-1H-indol-3-yl)-2-(4-fluoro-2-(2-hydroxyethoxy)phenyl)-2-((3-methoxy-5-(methylsulfonyl)phenyl)-amino)ethanone] | 11 | 0.016 |  |  |  |  |
| COc1cc(NC(C(=O)c2c[nH]c3cc(OC)c(C)cc23)c2ccc(F)cc2OCCO)cc(S(C)(=O)=O)c1 (single isomer, unassigned) [Compound 6B, 2-(4-fluoro-2-(2-hydroxyethoxy)phenyl)-2-((3-methoxy-5-(methylsulfonyl)phenyl)amino)-1-(6-methoxy-5-methyl-1H-indol-3-yl)ethanone] | 13 | 0.16 |  |  |  |  |
| COc1cc(NC(C(=O)c2c[nH]c3cc(F)c(C)cc23)c2ccc(F)cc2OCCO)cc(S(C)(=O)=O)c1 (single isomer, unassigned) [Compound 7B, 2-(4-fluoro-2-(2-hydroxyethoxy)phenyl)-1-(6-fluoro-5-methyl-1H-indol-3-yl)-2-((3-methoxy-5-(methylsulfonyl)phenyl)amino)ethanone] | 8 | 0.036 |  |  |  |  |
| COc1cc(NC(C(=O)c2c[nH]c3c(F)cc(C)cc23)c2ccc(F)cc2OCCO)cc(S(C)(=O)=O)c1 (single isomer, unassigned) [Compound 8A, 2-(4-fluoro-2-(2-hydroxyethoxy)phenyl)-1-(7-fluoro-5-methyl-1H-indol-3-yl)-2-((3-methoxy-5-(methylsulfonyl)phenyl)amino)ethanone] | 3.4 | 0.0011 | 0.0014 | 0.036 | 0.0023 | 0.22 |
| COc1cc(NC(C(=O)c2c[nH]c3c(F)cc(C)cc23)c2ccc(F)cc2OCCO)cc(S(C)(=O)=O)c1 (single isomer, unassigned) [Compound 8B, 2-(4-fluoro-2-(2-hydroxyethoxy)phenyl)-1-(7-fluoro-5-methyl-1H-indol-3-yl)-2-((3-methoxy-5-(methylsulfonyl)phenyl)amino)ethanone] | 8.2 | 0.048 |  |  |  |  |
| COc1cc(NC(C(=O)c2c[nH]c3c(C)cc(Cl)cc23)c2ccc(F)cc2OCCO)cc(S(C)(=O)=O)c1 (single isomer, unassigned) [Compound 9B, 1-(5-chloro-7-methyl-1H-indol-3-yl)-2-(4-fluoro-2-(2-hydroxyethoxy)phenyl)-2-((3-methoxy-5-(methylsulfonyl)phenyl)amino)ethanone] | 13 | 0.051 |  |  |  |  |
| COc1cc(NC(C(=O)c2c[nH]c3ccc(OC(F)(F)F)cc23)c2ccc(F)cc2OCCO)cc(S(C)(=O)=O)c1 (single isomer, unassigned) [Compound 10A, 2-(4-fluoro-2-(2-hydroxyethoxy)phenyl)-2-((3-methoxy-5-(methylsulfonyl)phenyl)amino)-1-(5-(trifluoromethoxy)-1H-indol-3-yl)ethanone] | 12 | 0.02 |  |  |  |  |
| COc1cc(NC(C(=O)c2c[nH]c3cc(OC)c(OC(F)(F)F)cc23)c2ccc(F)cc2OCCO)cc(S(C)(=O)=O)c1 (single isomer, unassigned) [Compound 11A, 2-(4-fluoro-2-(2-hydroxyethoxy)phenyl)-2-((3-methoxy-5-(methyl-sulfonyl)phenyl)amino)-1-(6-methoxy-5-(trifluoromethoxy)-1H-indol-3-yl)ethanone] | 12 | 0.019 |  |  |  |  |
| COc1cc(NC(C(=O)c2c[nH]c3c(C)cc(OC(F)(F)F)cc23)c2ccc(F)cc2OCCO)cc(S(C)(=O)=O)c1 (single isomer, unassigned) [Compound 12B, 2-(4-fluoro-2-(2-hydroxyethoxy)phenyl)-2-((3-methoxy-5-(methylsulfonyl)phenyl)amino)-1-(7-methyl-5-(trifluoromethoxy)-1H-indol-3-yl)ethanone] | 9.9 | 0.0012 |  |  |  |  |
